Among the data in US8835469B2 (Cadila Healthcare Limited, priority 2009, dated 2014) are activity values, retold here.

This assay concerns the target T1, glucokinase (GK) enzyme (Homo sapiens, UniProt P35557).
T1 sequence (P35557 1-465): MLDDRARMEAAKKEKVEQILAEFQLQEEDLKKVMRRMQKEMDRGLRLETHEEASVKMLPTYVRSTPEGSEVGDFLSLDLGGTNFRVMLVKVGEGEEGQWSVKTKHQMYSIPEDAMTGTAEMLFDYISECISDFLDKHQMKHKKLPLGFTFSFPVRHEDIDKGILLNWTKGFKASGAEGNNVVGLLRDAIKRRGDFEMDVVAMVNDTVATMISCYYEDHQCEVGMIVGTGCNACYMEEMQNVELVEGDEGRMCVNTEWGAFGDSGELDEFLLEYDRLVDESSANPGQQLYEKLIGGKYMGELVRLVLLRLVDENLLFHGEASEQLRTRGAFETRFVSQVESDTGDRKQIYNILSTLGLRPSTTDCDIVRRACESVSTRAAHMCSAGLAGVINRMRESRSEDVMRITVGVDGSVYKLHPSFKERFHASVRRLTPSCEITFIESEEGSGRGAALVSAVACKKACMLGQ
Description: In-vitro glucokinase (GK) activation assay (coupled with glucose-6-phosphate dehydrogenase, absorbance at 340). The conditions noted are these: glucose 2.5 mM, read-out: % of GK activity wrt DMSO; for activity at 0.1 µM: 0.1 uM compound; for activity at 1 µM: 1 uM compound; for activity at 5 µM: 5 uM compound; for activity at 10 µM: 10 uM compound. It counts as biochemical. The protocol: The compound of the invention was incubated with glucokinase (GK) enzyme (0.2 units) for 10 minutes in assay buffer at 26° C. After incubation, addition of glucose-6-phosphate dehydrogenase (2.5 units), ATP (1 mM) and glucose (2.5 mM). Absorbance is measured at 340 nm for 15 minutes with 10 second interval using UV transparent plate in kinetic mode on Spectramax-190 at 30° C.

In the case of `Cc1nnc(-c2ccc(Oc3cc(OC4CCN(C)C4=O)cc(C(=O)Nc4nc(CCN5CCOCC5=O)cs4)c3)cc2)o1` (stereo not shown) [Example 5, 3-(4-(5-Methyl-1,3,4-oxadiazol-2-yl)phenoxy)-5-((1-methyl-2-oxopyrrolidin-3-yl)oxy)-N-(4-(2-(3-oxomorpholino)ethyl)thiazol-2-yl)benzamide], the activity at 0.1 µM amounted to 114%, the activity at 1 µM amounted to 159%, the activity at 5 µM turned out to be 287% and the activity at 10 µM was found to be 329%.
As to `Cc1nnc(-c2ccc(Oc3cc(OC4CCN(C)C4=O)cc(C(=O)NC4=NCCS4)c3)cc2)o1` (stereo not shown) [Example 6, N-(4,5-Dihydrothiazol-2-yl)-3-(4-(5-methyl-1,3,4-oxadiazol-2-yl)phenoxy)-5-((1-methyl-2-oxopyrrolidin-3-yl)oxy)benzamide], the activity at 0.1 µM came to 100%, the activity at 1 µM worked out at 115%, the activity at 5 µM stood at 190% and the activity at 10 µM was determined as 275%.
Take `Cc1nc(-c2ccc(Oc3cc(OC4CCN(C)C4=O)cc(C(=O)Nc4nccs4)c3)cc2)no1` (stereo not shown) [Example 7, 3-(4-(5-Methyl-1,2,4-oxadiazol-3-yl)phenoxy)-5-((1-methyl-2-oxopyrrolidin-3-yl)oxy)-N-(thiazol-2-yl)benzamide]: the activity at 0.1 µM was 164%, the activity at 1 µM stood at 314%, the activity at 5 µM worked out at 356% and the activity at 10 µM amounted to 347%.
The like results for `Cc1nnc(-c2ccc(Oc3cc(OC4CCN(C)C4=O)cc(C(=O)Nc4nnc(C5CC5)s4)c3)cc2)o1` (stereo not shown) [Example 8, N-(5-Cyclopropyl-1,3,4-thiadiazol-2-yl)-3-(4-(5-methyl-1,3,4-oxadiazol-2-yl)phenoxy)-5-((1-methyl-2-oxopyrrolidin-3-yl)oxy)benzamide] were, in that order, 134%, 195%, 218% and 235%.
The like results for `Cc1nnc(-c2ccc(Oc3cc(OC4CCN(C)C4=O)cc(C(=O)Nc4cnccn4)c3)cc2)o1` (stereo not shown) [Example 9, 3-(4-(5-Methyl-1,3,4-oxadiazol-2-yl)phenoxy)-5-((1-methyl-2-oxopyrrolidin-3-yl)oxy)-N-(pyrazin-2-yl)benzamide] were, in that order, 168%, 292%, 345% and 346%.
On the same counts, the results for `Cc1nnc(-c2cccc(Oc3cc(OC4CCN(C)C4=O)cc(C(=O)Nc4nccs4)c3)c2)o1` (stereo not shown) [Example 10, 3-(3-(5-Methyl-1,3,4-oxadiazol-2-yl)phenoxy)-5-((1-methyl-2-oxopyrrolidin-3-yl)oxy)-N-(thiazol-2-yl)benzamide] are 130%, 204%, 232% and 228%.
Consider `Cc1nnc(-c2ccc(Oc3cc(OC4CCN(C)C4=O)cc(C(=O)n4c(N)nc5ccccc54)c3)cc2)o1` (stereo not shown) [Example 11, 3-(3-(2-Amino-1H-benzo[d]imidazole-1-carbonyl)-5-(4-(5-methyl-1,3,4-oxadiazol-2-yl)phenoxy)phenoxy)-1-methylpyrrolidin-2-one], for which the activity at 0.1 µM is 101%, the activity at 1 µM is 109%, the activity at 5 µM stood at 130% and the activity at 10 µM worked out at 148%.
The like results for `Cc1nnc(-c2ccc(Oc3cc(OC4CCN(C)C4=O)cc(C(=O)Nc4cc(C)n(C(=O)OC(C)(C)C)n4)c3)cc2)o1` (stereo not shown) [Example 12, tert-Butyl 5-methyl-3-(3-(4-(5-methyl-1,3,4-oxadiazol-2-yl)phenoxy)-5-((1-methyl-2-oxopyrrolidin-3-yl)oxy)benzamido)-1H-pyrazole-1-carboxylate] were, in that order, 107%, 119%, 139% and 150%.
The like results for `Cc1nnc(-c2ccc(Oc3cc(OC4CCN(C)C4=O)cc(C(=O)Nc4nc5ccccc5s4)c3)cc2)o1` (stereo not shown) [Example 14, N-(Benzo[d]thiazol-2-yl)-3-(4-(5-methyl-1,3,4-oxadiazol-2-yl)phenoxy)-5-((1-methyl-2-oxopyrrolidin-3-yl)oxy)benzamide] were, in that order, 271%, 298%, 288% and 267%.
For `Cc1nnc(-c2ccc(Oc3cc(OC4CCN(C)C4=O)cc(C(=O)Nc4ncc(C(=O)O)s4)c3)cc2)o1` (stereo not shown) [Example 15, 2-(3-(4-(5-Methyl-1,3,4-oxadiazol-2-yl)phenoxy)-5-((1-methyl-2-oxopyrrolidin-3-yl)oxy)benzamido)thiazole-5-carboxylic acid], the activity at 0.1 µM worked out at 95.5%, the activity at 1 µM is 126%, the activity at 5 µM was 206% and the activity at 10 µM came to 237%.
The like results for `Cc1csc(NC(=O)c2cc(Oc3ccc(-c4nnc(C)o4)cc3)cc(OC3CCN(C(C)C)C3=O)c2)n1` (stereo not shown) [Example 16, 3((1-Isopropyl-2-oxopyrrolidin-3-yl)oxy)-5-(4-(5-methyl-1,3,4-oxadiazol-2-yl)phenoxy)-N-(4-methylthiazol-2-yl)benzamide] were, in that order, 106%, 169%, 259% and 280%.
As for `Cc1nnc(-c2ccc(Oc3cc(OC4CCN(C(C)C)C4=O)cc(C(=O)Nc4ncc(C)s4)c3)cc2)o1` (stereo not shown) [Example 17, 3((1-Isopropyl-2-oxopyrrolidin-3-yl)oxy)-5-(4-(5-methyl-1,3,4-oxadiazol-2-yl)phenoxy)-N-(5-methylthiazol-2-yl)benzamide], the activity at 0.1 µM was 125%, the activity at 1 µM is 158%, the activity at 5 µM amounted to 192% and the activity at 10 µM was found to be 178%.
On the same counts, the results for `Cc1nnc(-c2ccc(Oc3cc(OC4CCN(C(C)C)C4=O)cc(C(=O)Nc4nccs4)c3)cc2)o1` (stereo not shown) [Example 18, 3((1-Isopropyl-2-oxopyrrolidin-3-yl)oxy)-5-(4-(5-methyl-1,3,4-oxadiazol-2-yl)phenoxy)-N-(thiazol-2-yl)benzamide] are 125%, 201%, 253% and 280%.
The like results for `Cc1csc(NC(=O)c2cc(Oc3ccc(-c4nnc(C)o4)cc3)cc(OC3CCN(C4CC4)C3=O)c2)n1` (stereo not shown) [Example 19, 3((1-Cyclopropyl-2-oxopyrrolidin-3-yl)oxy)-5-(4-(5-methyl-1,3,4-oxadiazol-2-yl)phenoxy)-N-(4-methylthiazol-2-yl)benzamide] were, in that order, 114%, 208%, 305% and 282%.
The like results for `Cc1nnc(-c2ccc(Oc3cc(OC4CCN(C5CC5)C4=O)cc(C(=O)Nc4ncc(C)s4)c3)cc2)o1` (stereo not shown) [Example 20, 3((1-Cyclopropyl-2-oxopyrrolidin-3-yl)oxy)-5-(4-(5-methyl-1,3,4-oxadiazol-2-yl)phenoxy)-N-(5-methylthiazol-2-yl)benzamide] were, in that order, 121%, 188%, 208% and 196%.
For `Cc1nnc(-c2ccc(Oc3cc(OC4CCN(C5CC5)C4=O)cc(C(=O)Nc4nccs4)c3)cc2)o1` (stereo not shown) [Example 21, 3((1-Cyclopropyl-2-oxopyrrolidin-3-yl)oxy)-5-(4-(5-methyl-1,3,4-oxadiazol-2-yl)phenoxy)-N-(thiazol-2-yl)benzamide], the activity at 0.1 µM worked out at 120%, the activity at 1 µM is 213%, the activity at 5 µM was determined as 278% and the activity at 10 µM amounted to 281%.
The like results for `Cc1csc(NC(=O)c2cc(Oc3ccc(-c4noc(C)n4)cc3)cc(OC3CCN(C)C3=O)c2)n1` (stereo not shown) [Example 22, 3-(4-(5-Methyl-1,2,4-oxadiazol-3-yl)phenoxy)-5-((1-methyl-2-oxopyrrolidin-3-yl)oxy)-N-(4-methylthiazol-2-yl)benzamide] were, in that order, 163%, 283%, 347% and 320%.
On to `Cc1nc(-c2ccc(Oc3cc(OC4CCN(C)C4=O)cc(C(=O)Nc4ncc(C)s4)c3)cc2)no1` (stereo not shown) [Example 23, 3-(4-(5-Methyl-1,2,4-oxadiazol-3-yl)phenoxy)-5-((1-methyl-2-oxopyrrolidin-3-yl)oxy)-N-(5-methylthiazol-2-yl)benzamide], for which the activity at 0.1 µM turned out to be 168%, the activity at 1 µM stood at 250%, the activity at 5 µM amounted to 287% and the activity at 10 µM stood at 282%.
The like results for `Cc1cc(NC(=O)c2cc(Oc3ccc(-c4nnc(C)o4)cc3)cc(OC3CCN(C)C3=O)c2)n[nH]1` (stereo not shown) [Example 24, 3-(4-(5-Methyl-1,3,4-oxadiazol-2-yl)phenoxy)-N-(5-methyl-1H-pyrazol-3-yl)-5-((1-methyl-2-oxopyrrolidin-3-yl)oxy)benzamide] were, in that order, 146%, 147%, 173% and 189%.
